Experimental data reported in PubChem BioAssay (NCI).
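A five-concentration, 48-hour dose response in 96-well plates underlies each endpoint, interpolated linearly between surrounding concentrations. TGI denotes the concentration required for complete inhibition of growth.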

What was measured:
Assay in all cases: NCI-60 cell line screen, 48 h
786-0 renal = tested on: 786-0 renal
A498 renal = tested on: A498 renal
A549 NSCLC = tested on: A549 NSCLC
ACHN renal = tested on: ACHN renal
CAKI-1 renal = tested on: CAKI-1 renal
CCRF-CEM leukemia = tested on: CCRF-CEM leukemia
COLO 205 colon = tested on: COLO 205 colon
DLD-1 colon = tested on: DLD-1 colon
DMS 114 small cell lung = tested on: DMS 114 small cell lung
DMS 273 small cell lung = tested on: DMS 273 small cell lung
EKVX NSCLC = tested on: EKVX NSCLC
HCC-2998 colon = tested on: HCC-2998 colon
HCT-15 colon = tested on: HCT-15 colon
HL-60(TB) leukemia = tested on: HL-60(TB) leukemia
HOP-18 NSCLC = tested on: HOP-18 NSCLC
HOP-62 NSCLC = tested on: HOP-62 NSCLC
HOP-92 NSCLC = tested on: HOP-92 NSCLC
HT29 colon = tested on: HT29 colon
IGROV1 ovarian = tested on: IGROV1 ovarian
K-562 leukemia = tested on: K-562 leukemia
KM12 colon = tested on: KM12 colon
KM20L2 colon = tested on: KM20L2 colon
LOX IMVI melanoma = tested on: LOX IMVI melanoma
LXFL 529 NSCLC = tested on: LXFL 529 NSCLC
M14 melanoma = tested on: M14 melanoma
M19-MEL melanoma = tested on: M19-MEL melanoma
MALME-3M melanoma = tested on: MALME-3M melanoma
MOLT-4 leukemia = tested on: MOLT-4 leukemia
NCI-H226 lung = tested on: NCI-H226 lung
NCI-H23 lung = tested on: NCI-H23 lung
NCI-H460 lung = tested on: NCI-H460 lung
NCI-H522 lung = tested on: NCI-H522 lung
OVCAR-3 ovarian = tested on: OVCAR-3 ovarian
OVCAR-4 ovarian = tested on: OVCAR-4 ovarian
OVCAR-5 ovarian = tested on: OVCAR-5 ovarian
OVCAR-8 ovarian = tested on: OVCAR-8 ovarian
RPMI-8226 leukemia = tested on: RPMI-8226 leukemia
RXF-631 renal = tested on: RXF-631 renal
SF-268 CNS = tested on: SF-268 CNS
SF-295 CNS = tested on: SF-295 CNS
SF-539 CNS = tested on: SF-539 CNS
SK-MEL-2 melanoma = tested on: SK-MEL-2 melanoma
SK-MEL-28 melanoma = tested on: SK-MEL-28 melanoma
SK-MEL-5 melanoma = tested on: SK-MEL-5 melanoma
SK-OV-3 ovarian = tested on: SK-OV-3 ovarian
SN12C renal = tested on: SN12C renal
SNB-19 CNS = tested on: SNB-19 CNS
SNB-75 CNS = tested on: SNB-75 CNS
SNB-78 CNS = tested on: SNB-78 CNS
SW-620 colon = tested on: SW-620 colon
TK-10 renal = tested on: TK-10 renal
U251 CNS = tested on: U251 CNS
UACC-257 melanoma = tested on: UACC-257 melanoma
UACC-62 melanoma = tested on: UACC-62 melanoma
UO-31 renal = tested on: UO-31 renal
XF 498 CNS = tested on: XF 498 CNS
HCT-116 colon = tested on: HCT-116 colon
RXF 393 renal = tested on: RXF 393 renal

In the case of `COc1ccc(NC(=O)NS(=O)(=O)c2ccc(C)cc2)nn1`, the TGI (786-0 renal) is reported as over 100 µM, the TGI (A498 renal) is reported as over 100 µM and the TGI (A549 NSCLC) is reported as over 100 µM. The TGI (ACHN renal) was over 100 µM, the TGI (CAKI-1 renal) was over 100 µM and the TGI (CCRF-CEM leukemia) was over 100 µM. The TGI (COLO 205 colon) was over 100 µM, the TGI (DLD-1 colon) was over 100 µM and the TGI (DMS 114 small cell lung) was over 100 µM. For the same molecule, the TGI (DMS 273 small cell lung) was over 100 µM, the TGI (EKVX NSCLC) was over 100 µM and the TGI (HCC-2998 colon) was over 100 µM. It also gave a TGI (HCT-15 colon) of over 100 µM, a TGI (HL-60(TB) leukemia) of over 100 µM and a TGI (HOP-18 NSCLC) of over 100 µM. It also gave a TGI (HOP-62 NSCLC) of over 100 µM, a TGI (HOP-92 NSCLC) of over 100 µM and a TGI (HT29 colon) of over 100 µM. The TGI (IGROV1 ovarian) was over 100 µM, the TGI (K-562 leukemia) was over 100 µM and the TGI (KM12 colon) was over 100 µM. The TGI (KM20L2 colon) was over 100 µM, the TGI (LOX IMVI melanoma) was over 100 µM and the TGI (LXFL 529 NSCLC) was over 100 µM. For the same molecule, the TGI (M14 melanoma) was over 100 µM, the TGI (M19-MEL melanoma) was over 100 µM and the TGI (MALME-3M melanoma) was over 100 µM. It also gave a TGI (MOLT-4 leukemia) of over 100 µM, a TGI (NCI-H226 lung) of over 100 µM and a TGI (NCI-H23 lung) of over 100 µM. For the same molecule, the TGI (NCI-H460 lung) was over 100 µM, the TGI (NCI-H522 lung) was over 100 µM and the TGI (OVCAR-3 ovarian) was over 100 µM. The TGI (OVCAR-4 ovarian) was over 100 µM, the TGI (OVCAR-5 ovarian) was over 100 µM and the TGI (OVCAR-8 ovarian) was over 100 µM. For the same molecule, the TGI (RPMI-8226 leukemia) was over 100 µM, the TGI (RXF-631 renal) was over 100 µM and the TGI (SF-268 CNS) was over 100 µM. The TGI (SF-295 CNS) was over 100 µM, the TGI (SF-539 CNS) was over 100 µM and the TGI (SK-MEL-2 melanoma) was over 100 µM. The TGI (SK-MEL-28 melanoma) was over 100 µM, the TGI (SK-MEL-5 melanoma) was over 100 µM and the TGI (SK-OV-3 ovarian) was over 100 µM. It also gave a TGI (SN12C renal) of over 100 µM, a TGI (SNB-19 CNS) of over 100 µM and a TGI (SNB-75 CNS) of over 100 µM. The TGI (SNB-78 CNS) was over 100 µM, the TGI (SW-620 colon) was over 100 µM and the TGI (TK-10 renal) was over 100 µM. The TGI (U251 CNS) was over 100 µM, the TGI (UACC-257 melanoma) was over 100 µM and the TGI (UACC-62 melanoma) was over 100 µM. It also gave a TGI (UO-31 renal) of over 100 µM and a TGI (XF 498 CNS) of over 100 µM.

`CC(=O)Nc1ccccc1S(=O)(=O)c1ccccc1` gave a TGI (786-0 renal) of over 100 µM, a TGI (A498 renal) of over 100 µM and a TGI (A549 NSCLC) of over 100 µM. It also gave a TGI (ACHN renal) of over 100 µM, a TGI (CAKI-1 renal) of over 100 µM and a TGI (CCRF-CEM leukemia) of over 100 µM. It also gave a TGI (COLO 205 colon) of over 100 µM, a TGI (DLD-1 colon) of over 100 µM and a TGI (DMS 114 small cell lung) of over 100 µM. It also gave a TGI (DMS 273 small cell lung) of over 100 µM, a TGI (EKVX NSCLC) of over 100 µM and a TGI (HCC-2998 colon) of over 100 µM. The TGI (HCT-116 colon) was over 100 µM, the TGI (HCT-15 colon) was over 100 µM and the TGI (HL-60(TB) leukemia) was over 100 µM. It also gave a TGI (HOP-18 NSCLC) of over 100 µM, a TGI (HOP-62 NSCLC) of over 100 µM and a TGI (HOP-92 NSCLC) of over 100 µM. The TGI (HT29 colon) was over 100 µM, the TGI (IGROV1 ovarian) was over 100 µM and the TGI (K-562 leukemia) was over 100 µM. The TGI (KM12 colon) was over 100 µM, the TGI (KM20L2 colon) was over 100 µM and the TGI (LOX IMVI melanoma) was over 100 µM. The TGI (LXFL 529 NSCLC) was over 100 µM, the TGI (M14 melanoma) was over 100 µM and the TGI (M19-MEL melanoma) was over 100 µM. For the same molecule, the TGI (MALME-3M melanoma) was over 100 µM, the TGI (MOLT-4 leukemia) was over 100 µM and the TGI (NCI-H226 lung) was over 100 µM. The TGI (NCI-H23 lung) was over 100 µM, the TGI (NCI-H460 lung) was over 100 µM and the TGI (NCI-H522 lung) was over 100 µM. It also gave a TGI (OVCAR-3 ovarian) of over 100 µM, a TGI (OVCAR-4 ovarian) of over 100 µM and a TGI (OVCAR-5 ovarian) of 5.65 µM. The TGI (OVCAR-8 ovarian) was over 100 µM, the TGI (RPMI-8226 leukemia) was over 100 µM and the TGI (RXF 393 renal) was over 100 µM. For the same molecule, the TGI (RXF-631 renal) was over 100 µM, the TGI (SF-268 CNS) was over 100 µM and the TGI (SF-295 CNS) was over 100 µM. The TGI (SF-539 CNS) was over 100 µM, the TGI (SK-MEL-2 melanoma) was over 100 µM and the TGI (SK-MEL-28 melanoma) was over 100 µM. The TGI (SK-MEL-5 melanoma) was over 100 µM, the TGI (SK-OV-3 ovarian) was over 100 µM and the TGI (SN12C renal) was over 100 µM. The TGI (SNB-19 CNS) was over 100 µM, the TGI (SNB-75 CNS) was over 100 µM and the TGI (SNB-78 CNS) was over 100 µM. The TGI (SW-620 colon) was over 100 µM, the TGI (TK-10 renal) was over 100 µM and the TGI (U251 CNS) was over 100 µM. The TGI (UACC-257 melanoma) was over 100 µM, the TGI (UACC-62 melanoma) was over 100 µM and the TGI (UO-31 renal) was over 100 µM. It also gave a TGI (XF 498 CNS) of over 100 µM.
